The record followed here is patent US9782399B2, “Pharmaceutical compositions which inhibit FKBP52-mediated regulation of androgen receptor function and methods of using same” (The United States of America, as represented by the …, priority 2009, dated 2017).

The test system of test [1] is FKBP52-enhanced AR function. Nature of the test: Yeast AR-mediated β-galactosidase reporter assay, tester strain (AR-P723S + FKBP52). The class given is cell-based. The conditions noted are these: DHT-induced β-galactosidase reporter. The text has this: To investigate FTA inhibitory activity, a modified yeast-based assay was created to screen an in-house compound library. The receptor-mediated β-galactosidase assays were initially based on published methods ((Riggs D L, et al., EMBO J., 22:1158-67 (2003); Cox M B, et al., Toxicol. Lett. 129:13-21 (2002) and Balsiger, H. A., and Cox, M. B., in Methods in Molecular Biology: The Nuclear Receptor Superfamily, vol. 505. Edited by I. J. McEwan. The Humana Press, Totowa, N.J. (2008)), however, the assay methods were modified substantially to allow use of a 96-well plate format. All cDNAs for the FKBP proteins were obtained from the laboratory of David Smith at the Mayo Clinic, Arizona. The AR-P723S mutant was originally described previously (Cheung-Flynn, J. et al. (2005)).
All receptors and FKBP proteins were expressed from a set of yeast expression vectors that are commercially available (Mumberg, D., et al., Gene 156: 119-122 (1995)). […]
(§1) The strains were cultivated overnight using a shaking incubator in SC-HUW medium (synthetic complete medium lacking histidine, uracil and tryptophan). […] About one hour later, the plate was read in a luminometer. The measured RLU (relative light units) was normalized to the cell density of the cultures, at the time they were added to the plates, to give a measure of RLU/OD unit. […]

Test [2] addresses T1, wild type human AR (Homo sapiens, UniProt P10275).
T1 construct: expressed in transfected cells; host or cells: Saccharomyces cerevisiae W303 (PDR5 deleted)
T1 sequence (P10275 1-920): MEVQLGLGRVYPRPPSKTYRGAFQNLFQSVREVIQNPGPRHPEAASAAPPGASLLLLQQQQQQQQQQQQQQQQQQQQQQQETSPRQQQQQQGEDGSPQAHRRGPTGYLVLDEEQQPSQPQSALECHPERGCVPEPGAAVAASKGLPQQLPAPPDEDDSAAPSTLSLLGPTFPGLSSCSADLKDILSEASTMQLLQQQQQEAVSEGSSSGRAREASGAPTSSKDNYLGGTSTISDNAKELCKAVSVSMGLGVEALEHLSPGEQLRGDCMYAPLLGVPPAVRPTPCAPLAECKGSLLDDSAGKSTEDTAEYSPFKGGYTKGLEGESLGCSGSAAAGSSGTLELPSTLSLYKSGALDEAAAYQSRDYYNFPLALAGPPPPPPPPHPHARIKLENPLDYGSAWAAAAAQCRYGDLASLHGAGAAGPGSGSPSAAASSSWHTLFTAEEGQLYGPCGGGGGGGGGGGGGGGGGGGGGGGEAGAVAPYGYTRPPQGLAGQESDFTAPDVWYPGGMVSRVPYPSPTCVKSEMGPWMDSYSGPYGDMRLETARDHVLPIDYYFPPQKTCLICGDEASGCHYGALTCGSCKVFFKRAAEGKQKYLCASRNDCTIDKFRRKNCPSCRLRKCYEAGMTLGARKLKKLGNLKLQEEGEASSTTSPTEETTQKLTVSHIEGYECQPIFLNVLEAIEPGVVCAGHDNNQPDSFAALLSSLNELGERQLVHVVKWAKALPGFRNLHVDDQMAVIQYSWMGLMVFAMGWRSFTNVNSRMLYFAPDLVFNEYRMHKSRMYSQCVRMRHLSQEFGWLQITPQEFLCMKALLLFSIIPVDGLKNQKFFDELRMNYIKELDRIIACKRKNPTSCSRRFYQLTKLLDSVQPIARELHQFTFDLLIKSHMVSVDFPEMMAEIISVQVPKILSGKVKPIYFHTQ
The test is described as follows: Yeast AR-mediated β-galactosidase reporter assay, control strain (wild type AR alone). The class given is cell-based. The conditions noted are these: without FKBP52.
Description: The yeast host strain used to make these four strains, W303, has his3, trp1 and ura3 mutations, so that growth on media lacking tryptophan, histidine and uracil requires the presence of all three plasmids. The URA3-marked steroid receptor-mediated β-galactosidase reporter plasmid (pUCΔss-26X) was the gift of Dr. Brian Freeman, University of Illinois. The pleiotropic drug resistance 5 (PDR5) gene was deleted in this strain, because PDR5 is an ATP-binding cassette transporter that could potentially transport the test compounds out of the cells, thereby hindering their identification. By deleting PDR5, this potential problem is avoided. […]
as §1
The inventors began testing compounds in the assay by starting with a standard concentration of about 50 μM for all compounds tested. […] The plates are incubated for approximately another 1-3 hours, preferable about 1 hour and 30 minutes, and the light emission is measured on a microplate luminometer (Luminoskan Ascent, Thermo Labsystems). […]
(Reporter assays use an easily measured gene product as a stand-in for the process of interest.)

As to `Cc1ccc(NC(=O)c2ccccc2C(=O)O)cc1C` [Compound 1], the “inhibition of FKBP52-enhanced AR function” value in test [1] is reported as “inhibits FKBP52-enhanced AR function”. Besides, the “effect on AR function alone” value in test [2] is “does not affect AR function alone”.
